# Source: patent US20230115350A1 (Cedilla Therapeutics, Inc., priority 2021, published 2023)
# How the values were obtained:
# [1] = molecular target: TEAD1 protein (YAP Binding Domain) (Homo sapiens, UniProt P28347); test: TEAD1 lipid pocket compound displacement assay (TR-FRET, Cy5-probe); conditions: 60 minutes incubation at room temperature; TR-FRET 665 nm/620 nm; read-out: CDA IC50
# Protocol: Compound Displacement Assay.
# A TEAD1 lipid pocket displacement assay was carried out according to the following protocol. Purified His-tagged TEAD1 protein (YAP Binding Domain) was pre-mixed with a Cy5-probe (Cy5-conjugated to a small molecule that binds in the TEAD1 lipid pocket) and Terbium-labeled anti-His antibody (Cisbio Cat 61HI2TLB). The binding of the Cy5-probe to anti-His-Tb/His-tag TEAD1 complex yielded a TR-FRET signal. […] After 60 minutes incubation at room temperature of compounds with the His-TEAD1/anti-His-Tb/Cy5-probe complex, the plate was read on a plate reader (BMG ClarioStar Cat 430-1300) using TR-FRET mode with wavelengths of 665 nm/620 nm. The potency of compounds as TEAD1 lipid pocket binders was determined by IC50 value generated using a non-linear 4 parameter curve fit.
# NCI-H226 = test: 72H TEAD Proliferation Assay (Cell Titer-Glo 2.0); type: cell-based; conditions: Homo sapiens, NCI-H226, 72 h, CTG 2.0, cell line not given
# Protocol: The effect of TEAD inhibition on cell proliferation was assayed using Cell Titer Glo (CTG) 2.0 to measure response in mesothelioma cell lines NCI-H226 (ATCC, #CRL-5826) and NCI-H28 (ATCC, #CRL-5820).
# The 72H TEAD Proliferation assay utilizes Cell Titer-Glo 2.0 (Promega, #G9243) to measure the proliferation of cells in the presence or absence of compound. Cell Titer-Glo 2.0 determines the amount of viable cells by quantifying ATP (an indication of metabolically active cells). It utilizes the conversion of Luciferin to Oxyluciferin and a luminescent signal with the use of ATP to report the quantity of viable cells in culture. Within cells that are continually growing, ATP is being synthesized to meet their metabolic demands, meanwhile the opposite is true for cells that are dying or slowing down their proliferation and either no longer using ATP or are using less, respectively. The NF2-deficient NCI-H226 has been genetically validated as a cell line that is sensitive to TEAD inhibition. The NF2-wild type NCI-H28 has been genetically validated as a cell line that is not sensitive to TEAD inhibition and grows independently of TEAD activity.
# Compounds were screened against the responsive NCI-H226 cell line to assess the compounds' ability to inhibit TEAD and cell growth. Compounds were also screened against the non-responsive NCI-H28 cell line to ascertain whether the inhibition of cell growth was due to inhibition of the target TEAD or whether the inhibition was due to off-target cytotoxicity.
# 1) Assay ready plates (ARPs) were prepared by Echo acoustic liquid handler. For each compound, duplicate of 10-point half-log dilution series were dispensed in a 384-well microplate (Corning 3571).
# 5) NCI-H226 or NCI-H28 cells were harvested from culture in Assay Medium 1 and the multidrop Combi reagent dispenser was used to seed cells at 500 cells per 50 ul in each well of the ARPs and one Corning 3571 plate without compounds for Time 0 (TO) readout.
# 6) The TO plate was incubated for 2 hours at 37° C. with 5% CO2 to allow cells to settle, then the CTG Assay was performed.
# 7) All ARPs were incubated for 72 hours at 37° C. with 5% CO2, then the CTG Assay was performed for Time 72H (T72) readout.
# 8) CTG Assay: Bravo liquid handler (Agilent) was used to add 25 ul of CTG 2.0 to all columns of the plate except for Column 24, which was used to subtract out the background. After CTG addition, plates were placed on shaker at 800 RPM for 15 minutes at room temperature and kept in the dark. Luminescence was measured using EnVision multilabel plate reader with ultra-sensitive detection module.
# 9) Data Analysis: First background luminescence (no CTG wells) was subtracted from luminescence reading of all wells, then TO luminescence was subtracted from T72 luminescence. To compare anti-proliferative effect of compounds, GI50 was obtained by fitting dose response curves with nonlinear regression curve fit.
# Sequence of TEAD1 protein (YAP Binding Domain) (P28347 209-426 limits assumed): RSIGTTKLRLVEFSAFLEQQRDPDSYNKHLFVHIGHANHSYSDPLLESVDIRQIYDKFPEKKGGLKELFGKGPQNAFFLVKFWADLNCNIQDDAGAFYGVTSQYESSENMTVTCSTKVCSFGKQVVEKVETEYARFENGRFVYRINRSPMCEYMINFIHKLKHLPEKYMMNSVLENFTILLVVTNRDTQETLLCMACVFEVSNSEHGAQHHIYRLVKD
compound,measurement,setting,value
"C=CC(=O)Nc1ccc2c(c1)OC(C)(c1cccc(C(F)(F)F)c1)O2 (centres unmarked) [147*, N-(2-methyl-2-(3-(trifluoromethyl)phenyl)benzo[d][1,3]dioxol-5-yl)acrylamide]",IC50,[1],≤ 250 nM
same,GI50,NCI-H226,250 to 1000 nM
"C=CC(=O)Nc1ccc(CCc2cccc(F)c2)c(F)c1 [Compound 1, N-(3-fluoro-4-(3-fluorophenethyl)phenyl)acrylamide]",IC50,[1],≤ 250 nM
same,GI50,NCI-H226,1000 to 3000 nM
"C=CC(=O)Nc1ccc(OCc2cccc(F)c2)c(C2CCCCC2)c1 [Compound 3, N-(3-cyclohexyl-4-((3-fluorobenzyl)oxy)phenyl)acrylamide]",IC50,[1],500 to 2000 nM
same,GI50,NCI-H226,> 3000 nM
"C=CC(=O)Nc1ccc(OCc2cccc(F)c2)c(C(F)(F)F)c1 [Compound 9, N-(4-((3-fluorobenzyl)oxy)-3-(trifluoromethyl)phenyl)acrylamide]",IC50,[1],≤ 250 nM
same,GI50,NCI-H226,> 3000 nM
"C=CC(=O)Nc1ccc(OCC2CCC(F)(F)CC2)c2ccncc12 [Compound 19, N-(5-((4,4-difluorocyclohexyl)methoxy)isoquinolin-8-yl)acrylamide]",IC50,[1],> 2000 nM
same,GI50,NCI-H226,> 3000 nM
"C=CC(=O)Nc1ccc(OCC2CCC(F)(F)CC2)cc1C#N [Compound 20, N-(2-cyano-4-((4,4-difluorocyclohexyl)methoxy)phenyl)acrylamide]",IC50,[1],≤ 250 nM
same,GI50,NCI-H226,250 to 1000 nM
"C=CC(=O)Nc1ccc(OCC2CCC(F)(F)CC2)c2ocnc12 [Compound 21, N-(7-((4,4-difluorocyclohexyl)methoxy)benzo[d]oxazol-4-yl)acrylamide]",IC50,[1],≤ 250 nM
same,GI50,NCI-H226,≤ 250 nM
"C=CC(=O)Nc1ccc(OCC2CCC(F)(F)CC2)c2[nH]cnc12 [Compound 22, N-(7-((4,4-difluorocyclohexyl)methoxy)-1H-benzo[d]imidazol-4-yl)acrylamide]",IC50,[1],500 to 2000 nM
same,GI50,NCI-H226,250 to 1000 nM
"C=CC(=O)Nc1ccc(OCC2CCC(F)(F)CC2)c2ccnn12 [Compound 23, N-(4-((4,4-difluorocyclohexyl)methoxy)pyrazolo[1,5-a]pyridin-7-yl)acrylamide]",IC50,[1],≤ 250 nM
same,GI50,NCI-H226,1000 to 3000 nM
"C=CC(=O)Nc1ccc(OCC2CCCC(F)(F)C2)c(F)c1 (centres unmarked) [Compound 24, N-(4-((3,3-difluorocyclohexyl)methoxy)-3-fluorophenyl)acrylamide]",IC50,[1],≤ 250 nM
same,GI50,NCI-H226,≤ 250 nM
"C=CC(=O)Nc1ccc(OCc2cccc(CC)c2)c(F)c1 [Compound 26, N-(4-((3-ethylbenzyl)oxy)-3-fluorophenyl)acrylamide]",IC50,[1],≤ 250 nM
same,GI50,NCI-H226,250 to 1000 nM
"C=CC(=O)Nc1ccc(/C=C/c2cccc(F)c2)c(F)c1 [Compound 27, (E)-N-(3-fluoro-4-(3-fluorostyryl)phenyl)acrylamide]",IC50,[1],500 to 2000 nM
same,GI50,NCI-H226,1000 to 3000 nM
"C=CC(=O)Nc1ccc(COc2cccc(F)c2)c(F)c1 [Compound 28, N-(3-fluoro-4-((3-fluorophenoxy)methyl)phenyl)acrylamide]",IC50,[1],250 to 500 nM
same,GI50,NCI-H226,250 to 1000 nM
"C=CC(=O)Nc1ccc(COc2cccc(C(F)(F)F)c2)c(F)c1 [Compound 31, N-(3-fluoro-4-((3-(trifluoromethyl)phenoxy)methyl)phenyl)acrylamide]",IC50,[1],≤ 250 nM
same,GI50,NCI-H226,≤ 250 nM
"C=CC(=O)Nc1ccc(OCc2cccc(C(F)(F)F)c2)c(C#N)c1 [Compound 38, N-(3-cyano-4-((3-(trifluoromethyl)benzyl)oxy)phenyl)acrylamide]",IC50,[1],500 to 2000 nM
same,GI50,NCI-H226,1000 to 3000 nM
"C=CC(=O)Nc1ccc(OCc2cccc(F)c2Cl)c(C#N)c1 [Compound 39, N-(4-((2-chloro-3-fluorobenzyl)oxy)-3-cyanophenyl)acrylamide]",IC50,[1],250 to 500 nM
same,GI50,NCI-H226,≤ 250 nM
"C=CC(=O)Nc1ccc(OCc2ccc(F)c(F)c2)c(C#N)c1 [Compound 40, N-(3-cyano-4-((3,4-difluorobenzyl)oxy)phenyl)acrylamide]",IC50,[1],500 to 2000 nM
same,GI50,NCI-H226,1000 to 3000 nM
"C=CC(=O)Nc1ccc(OCc2cncc(C(F)(F)F)c2)c(C#N)c1 [Compound 41, N-(3-cyano-4-((5-(trifluoromethyl)pyridin-3-yl)methoxy)phenyl)acrylamide]",IC50,[1],> 2000 nM
same,GI50,NCI-H226,> 3000 nM
"C=CC(=O)Nc1ccc(OCc2cncc(C(F)(F)F)c2)cc1C#N [Compound 42, N-(2-cyano-4-((5-(trifluoromethyl)pyridin-3-yl)methoxy)phenyl)acrylamide]",IC50,[1],> 2000 nM
same,GI50,NCI-H226,250 to 1000 nM
"C=CC(=O)Nc1ccc(OCc2cccc(F)c2)cc1F [Compound 45, N-(2-fluoro-4-((3-fluorobenzyl)oxy)phenyl)acrylamide]",GI50,NCI-H226,> 3000 nM
"C=CC(=O)Nc1ccc(OCC2CCC(F)(F)CC2)c2ccccc12 [Compound 49, N-(4-((4,4-difluorocyclohexyl)methoxy)naphthalen-1-yl)acrylamide]",IC50,[1],≤ 250 nM
same,GI50,NCI-H226,≤ 250 nM
"C=CC(=O)Nc1ccc(OCc2cccc(C#N)c2)c(F)c1 [Compound 92, N-(4-((3-cyanobenzyl)oxy)-3-fluorophenyl)acrylamide]",IC50,[1],500 to 2000 nM
"C=CC(=O)Nc1ccc(OCc2cccc(C)c2)c(F)c1 [Compound 93, N-(3-fluoro-4-((3-methylbenzyl)oxy)phenyl)acrylamide]",IC50,[1],≤ 250 nM
"C=CC(=O)Nc1ccc(OCCCC(F)(F)F)c(F)c1 [Compound 94, N-(3-fluoro-4-(4,4,4-trifluorobutoxy)phenyl)acrylamide]",IC50,[1],500 to 2000 nM
"C=CC(=O)Nc1ccc(OCc2cccc(F)c2F)c(F)c1 [Compound 95, N-(4-((2,3-difluorobenzyl)oxy)-3-fluorophenyl)acrylamide]",IC50,[1],250 to 500 nM
"C=CC(=O)Nc1ccc(OCc2cc(F)cc(F)c2)c(F)c1 [Compound 97, N-(4-((3,5-difluorobenzyl)oxy)-3-fluorophenyl)acrylamide]",IC50,[1],250 to 500 nM
"C=CC(=O)Nc1ccc(Oc2ccc(C3CCCCC3)cc2)c(F)c1 [Compound 102, N-(4-(4-cyclohexylphenoxy)-3-fluorophenyl)acrylamide]",IC50,[1],≤ 250 nM
"C=CC(=O)Nc1ccc(C(=O)Nc2cccc(F)c2)c(F)c1 [Compound 118, 4-acrylamido-2-fluoro-N-(3-fluorophenyl)benzamide]",IC50,[1],> 2000 nM
"C=CC(=O)Nc1ccc(C2CCc3ccccc3C2)c(F)c1 (centres unmarked) [Compound 119, N-(3-fluoro-4-(1,2,3,4-tetrahydronaphthalen-2-yl)phenyl)acrylamide]",IC50,[1],500 to 2000 nM
"C=CC(=O)Nc1ccc(OC(C)c2ccccc2Cl)c(F)c1 (centres unmarked) [Compound 123, N-(4-(1-(2-chlorophenyl)ethoxy)-3-fluorophenyl)acrylamide]",IC50,[1],500 to 2000 nM
"C=CC(=O)Nc1ccc(OCc2cccc(F)c2)c(F)n1 [Compound 127, N-(6-fluoro-5-((3-fluorobenzyl)oxy)pyridin-2-yl)acrylamide]",IC50,[1],≤ 250 nM
"C=CC(=O)Nc1cc(F)c(OCc2cccc(F)c2)cn1 [Compound 128, N-(4-fluoro-5-((3-fluorobenzyl)oxy)pyridin-2-yl)acrylamide]",IC50,[1],≤ 250 nM
"C=CC(=O)Nc1ccc(OCc2cccc(F)c2)c(C#N)c1 [Compound 130, N-(3-cyano-4-((3-fluorobenzyl)oxy)phenyl)acrylamide]",IC50,[1],500 to 2000 nM
"C=CC(=O)Nc1ccc(C2COc3ccccc3C2=O)c(F)c1 (centres unmarked) [Compound 131, N-(3-fluoro-4-(4-oxochroman-3-yl)phenyl)acrylamide]",IC50,[1],500 to 2000 nM
"C=CC(=O)Nc1cc2nc(CCCC(F)(F)F)oc2cc1F [Compound 133, N-(6-fluoro-2-(4,4,4-trifluorobutyl)benzo[d]oxazol-5-yl)acrylamide]",GI50,NCI-H226,≤ 250 nM
"C=CC(=O)Nc1cc2nc(CCc3cccc(F)c3)oc2cc1F [Compound 139, N-(6-fluoro-2-(3-fluorophenethyl)benzo[d]oxazol-5-yl)acrylamide]",IC50,[1],250 to 500 nM
